Series [1] has as its system Water Immersion Restraint Stress-Induced Ulcer. Put plainly: Test on Water Immersion Restraint Stress-Induced Ulcer. Type of series: in vivo, Wister male rat. To be noted: 30 mg/5 ml/kg-b.w. in 0.5% CMC, 1 hour before stress, water immersion restraint 6 hours, 20 to 22° C., ulcer index = sum of longer diameters (mm); for inhibition in vivo at 30 mg/kg: Rattus norvegicus, read-out: Percent Inhibition on Ulceration. How it is done:
1) Test on Water Immersion Restraint Stress-Induced Ulcer:
A 11-week-old Wister male rat having been deprived of food for 18 hours was restrained in a cage and immersed chest-deep in water at 20 to 22° C. for 6 hours to impose a stress. The rat taken out of water was sacrificed by cervical dislocation, the stomach removed, 5 ml of a 5% formalin aqueous solution poured into the stomach, and the whole stomach was soaked in the same solution for 30 minutes. The thus fixed sample was opened along the greater curvature. The longer diameter (mm) of ulcers formed was measured with a slide caliper, and the sum was taken as an ulcer index. Each of test compounds shown in Table 1 below was suspended in a 0.5% carboxymethylcellulose (CMC) solution and administered to the rat (test group) at a dose level of 30 mg/5 ml/kg-b.w. 1 hour before imposition of a stress. Only a 0.5% CMC solution (5 ml) was administered to a control group. A percent inhibition of ulceration was obtained from equation: [formula]

A short description of series [2]: Toxicity (oral LD50). To be noted: in vivo, orally administering, species not given. An excerpt:
The compounds of the present invention are of low toxicity.

Series [3] relates to Ethanol-Induced Ulcer. Put plainly: Ethanol-Induced Ulcer. The class given is in vivo, Donryu male rat. To be noted: orally, 30 mg/5 ml/kg-b.w. in 0.5% CMC, one hour before 5 ml/kg-b.w. of 100% ethanol. As to the method: 2) Ethanol-Induced Ulcer:
A Donryu male rat having been deprived of food for 48 hours and of water for 24 hours orally received 5 ml/kg-b.w. of 100% ethanol. One hour later, the rat was sacrificed in the same manner as described in (1) above, the stomach removed and treated in the same manner as above. The test compound (the compound of Example 2) was suspended in a 0.5% CMC solution and orally administered to the rat at a dose of 30 mg/5 ml/kg-b.w. one hour before administration of ethanol.

We go through twelve compounds from US5185347A, “Piperidine compounds and antiulcer composition containing the same” (Meiji Seika Kaisha Ltd., priority 1990, dated 1993).

The LD50 is the dose at which mortality reaches 50%. Read a high LD50 as a less toxic substance.

Take “5(6)-(2-Acetylamino-2-ethoxycarbonyl)ethyl-l-[2-(2,2,6,6-tetramethylpiperidin-1-yl)]ethyl-2-[2-(2,2,6,6-tetramethylpiperidin-1-yl)ethylthio]benzimidazole [Example 12]”: in series [1], the “Percent Inhibition on Ulceration” value came out at 87%.
On to `COc1ccc2nc(SCCN3C(C)(C)CCCC3(C)C)[nH]c2c1` [Example 1, 5-Methoxy-2-[2-(2,2,6,6-tetramethylpiperidin-1-yl)ethylthio]benzimidazole], for which the inhibition in vivo at 30 mg/kg in series [1] amounted to 92%. Also, the LD50 in series [2] was > 1000 mg/kg.
For the compound `CCOC(=O)C(Cc1ccc2[nH]c(SCCN3C(C)(C)CCCC3(C)C)nc2c1)NC(=O)c1ccc(Cl)cc1` (stereo not shown) [Example 2], the inhibition in vivo at 30 mg/kg in series [1] stood at 97%. The inhibition on erosion in series [3] is on record as 80%. The LD50 in series [2] was > 1000 mg/kg.
Turning to `CC1(C)CCCC(C)(C)N1CCSc1nc2cc(CC(NC(=O)c3ccc(Cl)cc3)C(N)=O)ccc2[nH]1` (stereo not shown) [Example 3, 5-[2-Carbamoyl-2-(p-chlorobenzoyl)amino]ethyl-2-[2-(2,2,6,6-tetramethylpiperidin-1-yl)ethylthio]benzimidazole], in series [1], the inhibition in vivo at 30 mg/kg is 62%.
On the same count and under the same terms, as for `CC1(C)CCCC(C)(C)N1CCSc1nc2cc(CC(NC(=O)c3ccc(Cl)cc3)C(=O)O)ccc2[nH]1` (stereo not shown) [Example 4, 5-[2-Carboxy-2-(p-chlorobenzoyl)amino]ethyl-2-[2-(2,2,6,6-tetramethylpiperidin-1-yl)ethylthio]benzimidazole], the figure is 40%.
`CCOC(=O)C(Cc1ccc2[nH]c(SCCN3C(C)(C)CCCC3(C)C)nc2c1)NC(C)=O` (stereo not shown) [Example 5, 5-[2-Acetylamino-2-ethoxycarbonyl)ethyl-2-[2-(2,2,6,6-tetramethylpiperidin-1-yl)ethylthio]benzimidazole]: the inhibition in vivo at 30 mg/kg in series [1] was 97%. The LD50 in series [2] is > 1000 mg/kg.
For `Cc1ccc2nc(SCCN3C(C)(C)CCCC3(C)C)[nH]c2c1` [Example 6, 5-Methyl-2-[2-(2,2,6,6-tetramethylpiperidin-1-yl)ethylthio]benzimidazole], in series [1], the inhibition in vivo at 30 mg/kg was 95%.
Same read-out and setting: as for `CC1(C)CCCC(C)(C)N1CCSc1nc2cc(CO)ccc2[nH]1` [Example 7], the figure is 97%; as for `COC(=O)c1ccc2[nH]c(SCCN3C(C)(C)CCCC3(C)C)nc2c1` [Example 8], 98%.
For `CC1(C)CCCC(C)(C)N1CCSc1nc2ccccc2[nH]1` [Example 9], the inhibition in vivo at 30 mg/kg in series [1] turned out to be 97%.
Same read-out and setting: to `Cn1c(SCCN2C(C)(C)CCCC2(C)C)nc2ccccc21` [Example 10] belongs 100%; to `CC1(C)CCCC(C)(C)N1CCSc1nc2ccccc2n1Cc1ccccc1` [Example 11], 95%.
